Experimental data published in ChEMBL document CHEMBL4130638, “Discovery of the Polyamine Conjugate with Benzo[ cd]indol-2(1 H)-one as a Lysosome-Targeted Antimetastatic Agent” (J Med Chem, 2018).
Calls of active or inactive are those of the source. The calls are words filed in the database; no cut-off is given here.

Columns and labels:
HCT-116 [1] = assay: Downregulation of Akt protein expression in human HCT116 cells up to 10 uM after 24 hrs in presence of autophagy inhibitor 3-MA by Western blot method; format: functional, cell-based
HCT-116 [2] = assay: Induction of apoptosis in human HCT116 cells assessed as necrotic cells at 10 uM after 24 hrs by annexin V-FITC/propidium iodide staining based flow cytometry (reference value: 3.9%); format: functional
CT26 [3] = assay: Induction of apoptosis in mouse CT26 cells assessed as necrotic cells at 10 uM after 24 hrs in presence of autophagy inhibitor 3-MA by annexin V-FITC/propidium iodide staining based flow cytometry (reference value: 4.36%); format: functional
CT26 [4] = assay: Induction of apoptosis in mouse CT26 cells assessed as early apoptotic cells at 10 uM after 24 hrs by annexin V-FITC/propidium iodide staining based flow cytometry (reference value: 3.91%); format: functional
HCT-116 [5] = assay: Induction of apoptosis in human HCT116 cells assessed as live cells at 10 uM after 24 hrs in presence of pan-caspase inhibitor Z-VAD-FMK by annexin V-FITC/propidium iodide staining based flow cytometry (reference value: 89.97%); format: functional
Mus musculus [6] = assay: Toxicity in Balb/c mouse implanted with mouse CT26 cells assessed as increase in liver weight at 1 mg/kg, iv for 7 consecutive days starting from day 8 post tumor implantation; format: organism-based; details: in vivo
HCT-116 [7] = assay: Downregulation of Bcl2 protein expression in human HCT116 cells up to 10 uM after 24 hrs in presence of autophagy inhibitor 3-MA by Western blot method; format: functional, cell-based
HCT-116 [8] = assay: Decrease in putrescine level in human HCT116 cells at 2.5 to 10 uM after 24 hrs by G1321A fluorescence detector coupled HPLC analysis; format: functional, cell-based
HCT-116 [9] = assay: Induction of apoptosis in human HCT116 cells assessed as early apoptotic cells after 24 hrs by annexin V-FITC/propidium iodide staining based flow cytometry; format: functional, cell-based
Mus musculus [10] = assay: Toxicity in Balb/c mouse implanted with mouse CT26 cells assessed as increase in spleen weight at 1 mg/kg, iv for 7 consecutive days starting from day 8 post tumor implantation; format: organism-based; details: in vivo
HCT-116 [11] = assay: Induction of autophagy in human HCT116 cells at 5 to 20 uM after 24 hrs in presence of autophagy inhibitor 3-MA by Lyso staining based flow cytometry; format: functional, cell-based
CT26 [12] = assay: Induction of autophagy in mouse CT26 cells at 5 to 20 uM after 24 hrs by Lyso staining based flow cytometry; format: functional, cell-based
Mus musculus [13] = assay: Toxicity in Balb/c mouse implanted with mouse CT26 cells assessed as increase in liver weight at 1 mg/kg, iv for 14 consecutive days starting from day 8 post tumor implantation; format: organism-based; details: in vivo
HCT-116 [14] = assay: Induction of autophagy in human HCT116 cells after 24 hrs by MDC staining based flow cytometry; format: functional, cell-based
HCT-116 [15] = assay: Decrease in spermine level in human HCT116 cells at 2.5 to 10 uM after 24 hrs by G1321A fluorescence detector coupled HPLC analysis; format: functional, cell-based
[16] = Drug uptake in lysosomes isolated from human HCT116 cells at 10 uM after 8 hrs by Lyso-tracker staining based confocal microscopic method; format: ADME, subcellular, Lysosome; details: hct-116, 8 h
[17] = Drug uptake in human HCT116 cell lysosomes at 10 uM after 2 hrs by Lyso-tracker staining based confocal microscopic method; format: ADME, subcellular, Lysosome; details: hct-116, 2 h
K562 = assay: Growth inhibition of human K562 cells after 48 hrs by MTT assay; format: functional, cell-based; details: K562, 48 h
HCT-116 [18] = assay: Induction of autophagy in human HCT116 cells at 5 to 20 uM after 24 hrs in presence of autophagy inhibitor 3-MA by MDC staining based flow cytometry; format: functional, cell-based
HCT-116 [19] = assay: Upregulation of p53 protein expression in human HCT116 cells up to 10 uM after 24 hrs in presence of autophagy inhibitor 3-MA by Western blot method; format: functional, cell-based
HCT-116 [20] = assay: Upregulation of cleaved caspase-3 protein expression in human HCT116 cells up to 10 uM after 24 hrs in presence of autophagy inhibitor 3-MA by Western blot method; format: functional, cell-based
[21] = Drug uptake in human HCT116 cells assessed as PAT-mediated drug internalization at 2.5 to 7.5 uM after 24 hrs in presence of spermidine by high content screening analysis; format: ADME, cell-based
HCT-116 [22] = assay: Induction of apoptosis in human HCT116 cells assessed as live cells at 10 uM after 24 hrs in presence of autophagy inhibitor 3-MA by annexin V-FITC/propidium iodide staining based flow cytometry (reference value: 89.97%); format: functional
CT26 [23] = assay: Induction of apoptosis in mouse CT26 cells after 24 hrs by acridine orange and ethidium bromide staining based high content screening analysis; format: functional, cell-based
HepG2 = assay: Growth inhibition of human HepG2 cells after 48 hrs by MTT assay; format: functional, cell-based; details: HepG2, 48 h
HCT-116 [24] = assay: Downregulation of mTOR protein expression in human HCT116 cells after 24 hrs by Western blot method; format: functional, cell-based
HCT-116 [25] = assay: Downregulation of cathepsin-L protein expression in human HCT116 cells after 24 hrs by Western blot method; format: functional, cell-based
HCT-116 [26] = assay: Induction of apoptosis in human HCT116 cells assessed as early apoptotic cells at 10 uM after 24 hrs by annexin V-FITC/propidium iodide staining based flow cytometry (reference value: 4.1%); format: functional
HCT-116 [27] = assay: Downregulation of cathepsin-B protein expression in human HCT116 cells after 24 hrs by Western blot method; format: functional, cell-based
HCT-116 [28] = assay: Growth inhibition of human HCT116 cells after 48 hrs by MTT assay; format: functional, cell-based; details: HCT-116, 48 h
CT26 [29] = assay: Induction of apoptosis in mouse CT26 cells assessed as live cells at 10 uM after 24 hrs by annexin V-FITC/propidium iodide staining based flow cytometry (reference value: 89.47%); format: functional
HCT-116 [30] = assay: Decrease in spermidine level in human HCT116 cells at 2.5 to 10 uM after 24 hrs by G1321A fluorescence detector coupled HPLC analysis; format: functional, cell-based
CT26 [31] = assay: Induction of apoptosis in mouse CT26 cells assessed as necrotic cells at 10 uM after 24 hrs by annexin V-FITC/propidium iodide staining based flow cytometry (reference value: 4.36%); format: functional
HCT-116 [32] = assay: Induction of apoptosis in human HCT116 cells assessed as early apoptotic cells at 10 uM after 24 hrs in presence of pan-caspase inhibitor Z-VAD-FMK by annexin V-FITC/propidium iodide staining based flow cytometry (reference value: 4.1%); format: functional
HCT-116 [33] = assay: Induction of apoptosis in human HCT116 cells after 24 hrs by acridine orange and ethidium bromide staining based high content screening analysis; format: functional, cell-based
HCT-116 [34] = assay: Induction of apoptosis in human HCT116 cells assessed as necrotic cells at 10 uM after 24 hrs in presence of autophagy inhibitor 3-MA by annexin V-FITC/propidium iodide staining based flow cytometry (reference value: 3.9%); format: functional
HCT-116 [35] = assay: Induction of apoptosis in human HCT116 cells assessed as late apoptotic cells at 10 uM after 24 hrs by annexin V-FITC/propidium iodide staining based flow cytometry (reference value: 2.03%); format: functional
HCT-116 [36] = assay: Induction of apoptosis in human HCT116 cells assessed as late apoptotic cells at 10 uM after 24 hrs in presence of autophagy inhibitor 3-MA by annexin V-FITC/propidium iodide staining based flow cytometry (reference value: 2.03%); format: functional

In the case of `Cl.Cl.Cl.NCCCCNCCCCNCCCCN1C(=O)c2cccc3cccc1c23`, the Activity (HCT-116 [1]) is reported as “inactive”, the Activity (HCT-116 [2]) is reported as 2.97% and the Activity (CT26 [3]) is reported as 4.42%. For the same compound, the Activity (CT26 [4]) was 42.37%, the Activity (HCT-116 [5]) was 66.87% and the Activity (Mus musculus [6]) was “Toxic”. The Activity (HCT-116 [7]) was “inactive”, the Activity (HCT-116 [8]) was “inactive” and the Activity (HCT-116 [9]) was “Dose-dependent effect”. The Activity (Mus musculus [10]) was “Toxic”, the Activity (HCT-116 [11]) was “inactive” and the Activity (CT26 [12]) was “Active”. For the same compound, the Activity (Mus musculus [13]) was “Toxic”, the Activity (HCT-116 [14]) was “Dose-dependent effect” and the Activity (HCT-116 [15]) was “Active”. For the same compound, the Drug uptake [16] was “Active”, the Drug uptake [17] was “Active” and the IC50 (K562) was 12 µM. For the same compound, the Activity (HCT-116 [18]) was “inactive”, the Activity (HCT-116 [19]) was “inactive” and the Activity (HCT-116 [20]) was “inactive”. For the same compound, the Drug uptake [21] was “Not Active”, the Activity (HCT-116 [22]) was 56.54% and the Activity (CT26 [23]) was “Dose-dependent effect”. For the same compound, the IC50 (HepG2) was 5.28 µM, the Activity (HCT-116 [24]) was “Dose-dependent effect” and the Activity (HCT-116 [25]) was “Dose-dependent effect”. The Activity (HCT-116 [26]) was 31.31%, the Activity (HCT-116 [27]) was “Dose-dependent effect” and the IC50 (HCT-116 [28]) was 5.72 µM. For the same compound, the Activity (CT26 [29]) was 30.85%, the Activity (HCT-116 [30]) was “Active” and the Activity (CT26 [31]) was 3.56%. The Activity (HCT-116 [32]) was 11.4%, the Activity (HCT-116 [33]) was “Dose-dependent effect” and the Activity (HCT-116 [34]) was 7.21%. For the same compound, the Activity (HCT-116 [35]) was 27.58% and the Activity (HCT-116 [36]) was 18.92%.
